Test results from paper PMC8088467 (Cell Proliferation, 2021).

System: Candida albicans SC5314
Assay: Morphology assay (light microscope and SEM)
Assay type: cell-based
Conditions: 1 x 10^6 CFU/mL, RP medium, 8 hours 37°C; 200 nM TDNs, 20 µM His‐5 or 200 nM TDN/His‐5 (1:100); bright field images
Procedure: Candida albicans SC5314 (wild type) obtained from our laboratory were commercially from the American Type Culture Collection. ^34 Candida albicans strains were propagated on liquid or solid YPD medium at 30°C. The yeast cells used in all experiments were in the exponential growth phase (OD600 = 0.6). For inducing hyphae, C. albicans cells were grown in RPMI 1640 medium containing 2.5% foetal calf serum, 2 mM L‐glutamine, 20 mM HEPES and 16 mM sodium hydrogen carbonate (pH 7.0) (RP medium) at 37°C.
After fixation, the samples were dehydrated with a gradient series of ethanol. Specimens were observed under a Leica DM1000 microscope (Leica Microsystems) and a scanning electron microscope (Inspect F, FEI, America). ^40 , ^44

Question: Which “Morphology of C. albicans (hyphae formation)” value does the source give for Histatin 5 here?
Answer: more yeast cells and fewer hyphae
